# Assays:
# [1] = system: lambsquarter (Chenopodium album); test: General preemergence herbicidal activity, CHEAL; format: in vivo; details: applied to soil surface, visual score after 20-22 days, 0 = no injury, 100 = complete kill or no emergence, read-out: Pre-emergent Weed Control CHEAL; for pest or weed control at 140 g/ha: 140 g ai/ha
# Description: (§1) Seeds of the desired test plant species were planted in a soil matrix prepared by mixing a loam soil (43 percent silt, 19 percent clay, and 38 percent sand, with a pH of about 8.1 and an organic matter content of about 1.5 percent) and sand in a 70 to 30 ratio. The soil matrix was contained in plastic pots with a surface area of 127 square centimeters. When required to ensure good germination and healthy plants, a fungicide treatment and/or other chemical or physical treatment was applied. A weighed amount, determined by the highest rate to be tested, of each test compound was placed in a 25 mL glass vial and was dissolved in 6 mL of a 97:3 v/v (volume/volume) mixture of acetone and DMSO to obtain concentrated stock solutions. […] The stock solutions obtained were diluted with 18 mL of a 0.1% v/v aqueous solution of Tween® 20 surfactant to obtain spray solutions containing the highest application rate. Additional application rates were obtained by serial dilution of 12 mL of the high rate solution into a solution containing 3 mL of 97:3 v/v mixture of acetone and DMSO and 9 mL of the 0.1% v/v aqueous solution of Tween® 20 surfactant to obtain 1/2X, 1/4X, 1/8X and 1/16X rates of the high rate. Compound requirements are based upon a 12 mL application volume at a rate of 187 L/ha. Formulated compounds were applied to the soil surface with an overhead Mandel track sprayer equipped with a […] nozzles calibrated to deliver 187 L/ha over an application area of 0.503 square meters at a spray height of 18 inches (43 cm) above the soil surface. Control pots were sprayed in the same manner with the solvent blank. The treated pots and control pots were placed in a greenhouse maintained with an approximate 15 hour photoperiod and temperatures of about 23-29° C. during the day and 22-28° C. during the night. Nutrients and water were added on a regular basis and supplemental lighting was provided with overhead metal halide 1000-Watt lamps as necessary. The water was added by top-irrigation. After 20-22 days, the condition of the test plants that germinated and grew as compared with that of the untreated plants that emerged and grew was determined visually and scored on a scale of 0 to 100 percent where 0 corresponds to no injury and 100 corresponds to complete kill or no emergence.
# [2] = system: wild poinsettia (Euphorbia heterophylla); test: General preemergence herbicidal activity, EPHHL; format: in vivo; details: applied to soil surface, visual score after 20-22 days, 0 = no injury, 100 = complete kill or no emergence, read-out: Pre-emergent Weed Control EPHHL; for pest or weed control at 140 g/ha: 140 g ai/ha
# Description: as §1
# [3] = system: velvetleaf (Abutilon theophrasti); test: General postemergence herbicidal activity, ABUTH; format: in vivo; details: Abutilon theophrasti, post-emergence, 336 h, postemergence spray, visual score after 14 days, 0 = no injury, 100 = complete kill, read-out: Post-emergent Weed Control ABUTH; for pest or weed control at 280 g/ha: 280 g ai/ha; for pest or weed control at 70 g/ha: 70 g ai/ha; for pest or weed control at 140 g/ha: 140 g ai/ha
# Outline: (§2)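 Plants grown in greenhouse (~15 h photoperiod, 23-29 °C day) to first or second true leaf stage were sprayed with compound in acetone/DMSO-based aqueous spray mix containing crop oil concentrate and surfactant at 187 L/ha, as highest rate plus 1/2X to 1/16X serial dilutions. Injury scored visually after 14 days, 0–100%.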
# [4] = system: lambsquarter (Chenopodium album); test: General postemergence herbicidal activity, CHEAL; format: in vivo; details: Chenopodium album, post-emergence, 336 h, postemergence spray, visual score after 14 days, 0 = no injury, 100 = complete kill, read-out: Post-emergent Weed Control CHEAL; for pest or weed control at 280 g/ha: 280 g ai/ha; for pest or weed control at 70 g/ha: 70 g ai/ha; for pest or weed control at 140 g/ha: 140 g ai/ha
# Outline: as §2
# [5] = system: wild poinsettia (Euphorbia heterophylla); test: General postemergence herbicidal activity, EPHHL; format: in vivo; details: Euphorbia heterophylla, post-emergence, 336 h, postemergence spray, visual score after 14 days, 0 = no injury, 100 = complete kill, read-out: Post-emergent Weed Control EPHHL; for pest or weed control at 280 g/ha: 280 g ai/ha; for pest or weed control at 70 g/ha: 70 g ai/ha; for pest or weed control at 140 g/ha: 140 g ai/ha
# Outline: as §2
# rice (Oryza sativa) [6] = test: General preemergence herbicidal activity, ORYSA; format: in vivo; details: applied to soil surface, visual score after 20-22 days, 0 = no injury, 100 = complete kill or no emergence, read-out: Pre-emergent Weed Control ORYSA; for plant injury at 140 g/ha: 140 g ai/ha
# Description: as §1
# [7] = system: barnyardgrass (Echinochloa crus-galli); test: General preemergence herbicidal activity, ECHCG; format: in vivo; details: applied to soil surface, visual score after 20-22 days, 0 = no injury, 100 = complete kill or no emergence, read-out: Pre-emergent Weed Control ECHCG; for pest or weed control at 140 g/ha: 140 g ai/ha
# Description: as §1
# [8] = system: velvetleaf (Abutilon theophrasti); test: General preemergence herbicidal activity, ABUTH; format: in vivo; details: applied to soil surface, visual score after 20-22 days, 0 = no injury, 100 = complete kill or no emergence, read-out: Pre-emergent Weed Control ABUTH; for pest or weed control at 140 g/ha: 140 g ai/ha
# Description: as §1
# rice (Oryza sativa) [9] = test: General postemergence herbicidal activity, ORYSA; format: in vivo; details: Oryza sativa, post-emergence, 336 h, postemergence spray, visual score after 14 days, 0 = no injury, 100 = complete kill, read-out: Post-emergent Weed Control ORYSA; for plant injury at 280 g/ha: 280 g ai/ha; for plant injury at 70 g/ha: 70 g ai/ha; for plant injury at 140 g/ha: 140 g ai/ha
# Outline: as §2
# [10] = system: barnyardgrass (Echinochloa crus-galli); test: General postemergence herbicidal activity, ECHCG; format: in vivo; details: Echinochloa crus-galli, post-emergence, 336 h, postemergence spray, visual score after 14 days, 0 = no injury, 100 = complete kill, read-out: Post-emergent Weed Control ECHCG; for pest or weed control at 280 g/ha: 280 g ai/ha; for pest or weed control at 70 g/ha: 70 g ai/ha; for pest or weed control at 140 g/ha: 140 g ai/ha
# Outline: as §2
Compound,pest or weed control at 140 g/ha [1] [%],pest or weed control at 140 g/ha [2] [%],pest or weed control at 280 g/ha [3] [%],pest or weed control at 280 g/ha [4] [%],pest or weed control at 280 g/ha [5] [%],plant injury at 140 g/ha (rice (Oryza sativa) [6]) [%],pest or weed control at 140 g/ha [7] [%],pest or weed control at 140 g/ha [8] [%],plant injury at 280 g/ha (rice (Oryza sativa) [9]) [%],pest or weed control at 280 g/ha [10] [%],pest or weed control at 70 g/ha [3] [%],pest or weed control at 70 g/ha [4] [%],pest or weed control at 70 g/ha [5] [%],plant injury at 70 g/ha (rice (Oryza sativa) [9]) [%],pest or weed control at 70 g/ha [10] [%],pest or weed control at 140 g/ha [3] [%],pest or weed control at 140 g/ha [4] [%],pest or weed control at 140 g/ha [5] [%],plant injury at 140 g/ha (rice (Oryza sativa) [9]) [%],pest or weed control at 140 g/ha [10] [%],also measured
"CCOC(=O)c1nc(C2CC2)nc(N)c1C [Compound 1, 6-Amino-2-cyclopropyl-5-methylpyrimidine-4-carboxylic acid ethyl ester]",100,100,15,80,100,30,80,80,0,0,,,,,,,,,,,
"C=Cc1c(N)nc(-c2ccc(Cl)c(OC)c2F)nc1C(=O)OC [Compound 3, 6-Amino-2-(4-chloro-2-fluoro-3-methoxyphenyl)-5-vinylpyrimidine-4-carboxylic acid methyl ester]",100,100,,,,30,80,80,,,100,100,100,15,95,,,,,,
"C=Cc1c(N)nc(-c2ccc(Cl)c(F)c2F)nc1C(=O)OC [Compound 11, 6-Amino-2-(4-chloro-2,3-difluorophenyl)-5-vinyl-pyrimidine-4-carboxylic acid methyl ester]",,,,,,,,,,,100,100,100,0,90,,,,,,pest or weed control at 70 g/ha ([1]; 70 g ai/ha): 100%; pest or weed control at 70 g/ha ([2]; 70 g ai/ha): 100%; plant injury at 70 g/ha (rice (Oryza sativa) [6]; 70 g ai/ha): 95%; pest or weed control at 70 g/ha ([7]; 70 g ai/ha): 100%; pest or weed control at 70 g/ha ([8]; 70 g ai/ha): 100%
"CCc1c(N)nc(-c2ccc(Cl)c(OC)c2F)nc1C(=O)OC [Compound 21, 6-Amino-2-(4-chloro-2-fluoro-3-methoxyphenyl)-5-ethyl-pyrimidine-4-carboxylic acid methyl ester]",40,80,,,,0,0,60,,,,,,,,85,100,100,0,70,
"C=Cc1c(N)nc(-c2ccc(Cl)cc2)nc1C(=O)O [Compound 43, 6-Amino-2-(4-chlorophenyl)-5-vinylpyrimidine-4-carboxylic acid]",100,100,90,100,100,90,90,100,35,90,,,,,,,,,,,
"C=Cc1c(N)nc(-c2ccc(Cl)c(OC)c2)nc1C(=O)O [Compound 45, 6-Amino-2-(4-chloro-3-methoxyphenyl)-5-vinylpyrimidine-4-carboxylic acid]",60,0,0,95,60,30,10,0,0,60,,,,,,,,,,,
"C=Cc1c(N)nc(-c2ccc(Cl)c(C(C)F)c2F)nc1C(=O)O (stereo not drawn) [Compound 47, 6-Amino-2-(4-chloro-2-fluoro-3-(1-fluoroethyl)phenyl)-5-vinylpyrimidine-4-carboxylic acid]",,,,,,,,,,,90,100,100,50,100,,,,,,melting point: 150 to 153 °C
"C=Cc1c(N)nc(C2CC2)nc1C(=O)O [Compound 57, 6-amino-2-cyclopropyl-5-vinylpyrimidine-4-carboxylic acid]",,,,,,,,,,,,,,,,90,100,100,5,30,melting point: 187 to 189 °C
"C=Cc1c(N)cc(-c2ccc(Cl)cc2F)nc1C(=O)O [Compound 60, 4-Amino-6-(4-chloro-2-fluorophenyl)-3-vinylpyridine-2-carboxylic acid]",,,,,,,,,,,,,,,,70,100,80,15,35,melting point: 209 to 211 °C
